In patent US20100190797A1, “C[…] OF ZOPICLONE, PROCESSES FOR THEIR PREPARATION AND THEIR PHARMACEUTICAL COMPOSITIONS” (CIPLA LTD., priority 2007, published 2010):

Assays:
[1] = background statement; Form A gets converted into dihydrate Form B; cited from earlier work
[2] = Stability of crystalline polymorphic forms of Zopiclone (conversion to hydrate form); settings: conversion to more stable hydrate form of Zopiclone
[3] = Hygroscopicity on exposure to air; assay type: physicochemical; settings: does not capture moisture even on exposure to air

SMILES | stability of the known crystalline form [1] | thermodynamic stability of the crystalline form [2] | hygroscopicity [3]
CN1CCN(C(=O)OC2c3nccnc3C(=O)N2c2ccc(Cl)cn2)CC1 (centres unmarked) [Form B, Zopiclone] | thermodynamically stable | – | –
CN1CCN(C(=O)OC2c3nccnc3C(=O)N2c2ccc(Cl)cn2)CC1 (centres unmarked) [Form C, Zopiclone] | – | thermodynamically unstable | –
CN1CCN(C(=O)OC2c3nccnc3C(=O)N2c2ccc(Cl)cn2)CC1 (centres unmarked) [Zopiclone Form A, Zopiclone] | unstable | – | –
CN1CCN(C(=O)OC2c3nccnc3C(=O)N2c2ccc(Cl)cn2)CC1 (centres unmarked) [Zopiclone Form D, Zopiclone] | – | stable | non-hygroscopic
